Results: patent publication US20160220567A1, “COMPOSITION FOR TREATING OR PREVENTING BONE DISEASES, COMPRISING HALOFUGINONE AS ACTIVE INGREDIENT” (THE CATHOLIC UNIVERSITY OF KOREA INDUSTRY-ACADEMIC …, priority 2013, published 2016)

Tests used:
[1] = system: osteoclasts (TRAP positive cells) in the joint; experiment: Osteoclast differentiation potential in the joint of arthritis animal model by TRAP staining; format: in vivo, mouse; details: joint of CIA mice, FIG. 4A
Description: For the construction of a mouse model with collagen-induced arthritis (hereinafter, referred to as “CIA”), a 6-week old male DBA/1J mouse was subjected to primary immunization by intradermal injection after mixing the bovine type II collagen (hereinafter, referred to as “CII”) and complete Freud's adjuvant (CFA) in an amount of 100 μL, respectively. After a week thereafter, halofuginone was injected intraperitoneally at 3 day intervals at a concentration of 100 μg/kg and 500 μg/kg, respectively (9 weeks).
To examine the osteoclast differentiation potential in the joint of the animal model with arthritis by TRAP staining, the marker enzyme of osteoclasts were subjected to TRAP staining using the leukocyte acid phosphatase Kit (387-A, Sigma, St. Louis, Mo., USA) according to the manufacturer's manual. The cells having at least 5 nuclei among the TRAP positive cells (red color) were regarded as osteoclasts.

[2] = system: Th17, Th1 and Th2 cells from splenocytes; experiment: Differentiation of Th17-, Th1-, and Th2 cells from mouse splenocytes by halofuginone treatment; format: cell-based
Description: Splenocytes were obtained from mice, that is, the spleens removed from the mice and the spleen tissues were thinly ground using a tearing slide and the red blood cells (RBC) in the splenocytes were removed with the RBC lysis solution. Then, PBS buffer solution was added thereto, and the mixture was centrifuged, and washed to obtain splenocytes. Then, the singe cells (1 ? 10^6) isolated from the spleens were aliquoted into a 24-well plate coated with anti-CD3 antibody (1 μg/mL) were treated under the condition of capable of stimulating Th17 cells (anti-CD28 antibody (1 μg/mL), TGF-β (2 ng/ mL), IL-6 (20 ng/mL), anti-IL-4 (10 μg/mL), and anti-IFN-γ (10 μg/mL); the condition of capable of stimulating Th1 cells (anti-CD28 antibody (1 μg/mL), IL-12 (10 ng/mL), and anti-IL-4 (10 μg/mL)); or the condition of capable of stimulating Th2 cells (anti-CD28 antibody (1 μg/mL), IL-4 (10 ng/mL), and anti-IFN-γ (10 μg/mL)); and the cells were cultured for 3 days, and in particular, cultured after treating the cells with halofuginone at respective concentration and cultured. Specifically, DMSO treatment was used for the control group.

ERK of Th17 cells = experiment: pERK expression in Th17 cells by western blotting; format: cell-based, mouse; details: Th17 cells stimulated with halofuginone, FIG. 3C
Description: To examine whether halofuginone activates the ERK of Th17 cells, western blotting was performed for pERK in the cells under the condition of Example <2-1>. To this end, the Th17 cells were lysed in a lysis buffer [20 mM Tris-HCl (pH 7.5), 150 mM NaCl, 1% Triton X-100, 1 mM EDTA, 1 mM EGTA, 1 mM phenylmethylsulfonyl fluoride, 10 mM β-glycerophosphate, 1 mM NaF, 1 mM Na3VO4, and 19 Protease Inhibitow Cocktail™ (Roche Molecular Biochemicals, Indianapolis, Ind., USA)]. From the lysate, an equal amount of the protein (about 20 μg) was separated by sodium dodecyl sulfate-polyacrylamide gel electrophoresis and then transferred to a nitrocellulose membrane. Then, the blots were probed with NFATc1 and phospho-Smad2/3 (all from Santa Cruz Biotechnology), Stat3, Stat5, ERK, phospho-Stat3, phospho-stat5, and phospho-ERK (all from Cell Signaling Technology), and β-actin (Sigma) antibodies, and confirmed by ECL (Amersham, Del., USA).

[3] = system: murine bone marrow cells differentiating into osteoclasts; experiment: Murine bone marrow cell osteoclast differentiation (M-CSF, RANKL): TRAP staining and real-time PCR; format: cell-based, mouse; details: 5 days
Description: For test animals, 6 to 7-week old male DBA-1 mice were used. […] Bone marrow cells were isolated from the tibia and the femur of mice, and the RBC of the isolated bone marrow cells were lysed, inoculated into a 24-well plate after diluting in 10% Minimum α-MEM to a concentration of 2 ? 10^5 cells/well, and cultured for 12 hours. The adherent cells were removed, stimulated with a macrophage-colony stimulating factor (M-CSF) and cultured for 3 days, and treated with M-CSF (10 ng/mL), receptor activator of NF-κB ligand (RANKL; 50 ng/mL), and halofuginone and cultured for 2 days. The medium was replaced in 2 days, retreated in the same manner, and cultured for 2 days.
Murine bone marrow cells were differentiated for 5 days by stimulating with M-CSF, RANKL, and halofuginone and subjected to TRAP staining according to the method described in Example <1-8> to confirm the number of TRAP positive cells. Additionally, the expression of c-Fos, JunB, and Jpd2 in the bone marrow cells were confirmed by real-time PCR according to the method described in Example <1-6>.

[4] = system: CD4 T cells isolated from human peripheral blood; experiment: Expression of IL-17 and Foxp3 by flow cytometer in human T cells; format: cell-based; details: condition of differentiating Th17 cells, flow cytometry, FIG. 6A
Description: The CD4 T cells isolated from human peripheral blood were treated with halofuginone under the condition of differentiating Th17 cells (anti-CD3 (0.5 μg/mL), anti-CD28 (0.5 μg/mL), anti-IFN-γ (10 μg/mL), anti-IL-4 (10 μg/mL), IL-6 (20 ng/mL), and IL-1β (10 ng/mL)) and cultured. Then, the cells were collected, washed with the FACs buffer for flow cytometry analysis, subjected to blocking at 4° C. for the inhibition of non-specific binding for 15 minutes, added with CD4 and CD25 (i.e., cell surface markers) along with anti-CD4-PerCP and anti-CD25-APC and reacted at 4° C. for 30 minutes, and washed with a perm wash buffer. After performing the Cytofix/cytoperm process at 4° C. for 20 minutes, the resultant was washed with the perm wash buffer. Anti Foxp3-FITC and anti IL-17 PE were added thereto, reacted at 4° C. for 30 minutes, and washed with the perm wash buffer. Upon completion of staining, the cells were analyzed using the fluorescentactivated cell sorter (FACs) regarding the expression levels of IL-17 cytokines and Foxp3 according to the halofuginone treatment.

[5] = condition of differentiating Th17 cells, 3 days, vs DMSO, FIG. 3A

## O=C(C[C@H]1NCCC[C@@H]1O)Cn1cnc2cc(Br)c(Cl)cc2c1=O (racemic) [halofuginone]
[1]
  number of TRAP positive cells: decreased
[2]; [5]
  Th17 cells: inhibited
  Treg cells: increased
[2]; conditions of differentiating Th1 cells, IFN-gamma, and Th2 cells
  production of IL-4: did not affect
ERK of Th17 cells
  expression of pERK: increased
[3]; FIG. 5C
  mRNA expression of Jpd2: inhibits
  mRNA expression of JunB: inhibits
  mRNA expression of c-Fos: inhibits
[3]; TRAP staining, FIG. 5A
  expression of factors associated with the differentiation of osteoclasts: inhibits
[4]
  number of Th17 cells: reduces
  number of Treg cells: increasing
